In data set [1] the test system is MCF-7 (estrogen receptor-α-positive) breast cancer cell line. Put plainly: MTT cytotoxicity test, MCF-7. In kind it is cell-based. The note with it: 24 h, mean ± SD, read-out: IC50 determined by MTT cytotoxicity test. The procedure:
3-(4,5-Dimethylthiazol-2-yl)-2,5-diphenyltetrazolium bromide (MTT) was from Serva Electrophoresis (Heidelberg, Germany). Monoclonal mouse anti-bromodeoxyuridine (BrdU) intibody was obtained from DakoCytomation (Glostrup, Denmark). Calcein AM was obtained from PAA Laboratories GmbH (Pasching, Austria). […] All other cells were cultured in DMEM medium (Sigma, MO, USA). All used media were supplemented with 10% heat-inactivated fetal bovine serum, 2 mmol/L L-glutamine, 1% penicillin/streptomycin. The cell lines were maintained under standard cell culture conditions at 37° C. and 5% CO2 in a humid environment. Cells were subcultured twice or three times a week using the standard trypsinization procedure (Sigma, USA).
Cell viability in this case was assessed by 3-(4,5-dimethylthiozol-2-yl)-2,5-diphenyltetrazolium bromide (MTT) to determine IC50 concentrations of studied agents as described previously. […] The cells (70% to 80% confluent) were treated with brassinosteroids for 6, 12 and 24 h in cell culture medium. Cells that were used as controls were incubated with the maximum used amount of steroid diluent DMSO only. […] The absorbance was read using an ELISA reader Labsystem Multiscan RC at 570 nm. The viability of treated cells was related to the viability of control cells that represented 100% viability. […]

The subject of the next data set is MCF-7 cells. Put plainly: Western blot of cell cycle and apoptosis related proteins, MCF-7. In kind it is cell-based. As to conditions: for MDM-2 expression (Western blot) / expression of apoptosis related proteins (Bcl-2 family, caspase-3 activation) (Western blot) / p21Waf1/Cip1 expression (Western blot) / p27Kip1 expression (Western blot) / p53 expression (Western blot): IC50 for 6, 12, 24 h vs untreated control; for retinoblastoma protein (Rb) expression, phosphorylated and dephosphorylated forms (Western blot): vs untreated control. How it is done:
The cells were seeded in a density 1.6×10^4 cells/cm^2 (LNCaP), 1.4×10^4 cells/cm^2 (DU-145, MDA-MB-468 and MCF-7) using culture medium in 100-mm culture Petri dishes. After reaching of 70-80% confluence, the cells were treated with tested compounds 9 in concentration IC50 that were evaluated by MTT analysis described above. DMSO was used as a vehicle for controls. After 6, 12 and 24 h treatment, the cells were washed with cold PBS and scraped in ice-cold protein extract ion buffer (50 mM HEPES, pH 7.5; 150 mM NaCl; 1 mM EDTA; 2.5 mM EGTA; 10% glycerol; 0.1% Tween 20) with protease and phosphatase inhibitors (25 μL/mL phenylmethanesulphonyl fluoride; 2.5 μL/mL leupeptin; 0.1 mM Na3VO4; 2.5 μL/mL aprotinin; 10 mM β-glycerol-phosphate; 1 mM dithiothreitol). The lysates were collected into microfuge tube and incubated on ice for 1 h. Cells were incubated 60 min at 4° C. under time by time shaking in protein extraction buffer. After centrifugation at 45 000×g for 30 min at 4° C., supernatant was collected, aliquoted, and stored at −80° C. The protein content in the lysates was measured by a Bredford assay (Bio-Rad Laboratories, Hercules, Calif., USA) according to the manufacture's protocol.
For Western blot analysis, equal aliquots of proteins (15-30 μg/well) were loaded on 10% or 12% SDS-PAGE gels and transferred onto nitrocellulose membranes (Amersham Biosciences, Vienna, Austria) by semi-dry electrophoretic transfer. Coloured marker (Rainbow™, Amersham Biosciences, Vienna, Austria) was used as a protein molecular weight standard. The non-specific binding sites were blocked by incubating the blot with 5% (w/v) non-fat dry milk in PBS for 2 h. The blot was incubated overnight in 4° C. with appropriate primary antibody that detects the protein epitope of interest and finally washed in PBS with 0.1% Tween 20 for 1 h. The blot was incubated with the diluted secondary goat anti-mouse IgG-horseradish peroxidase conjugated antibody (dilution 1:6000, Santa Cruz Biotechnology, Santa Cruz, Calif., USA) or goat anti-rabbit IgG-horseradish peroxidase conjugated antibody (dilution 1:2000, DakoCytomation, Glostrup, Denmark) for 45 min in 4° C. The membrane was washed in PBS with 0.1% Tween 20 for 1 h. The proteins were detected using a chemiluminescence detection system (Amersham Biosciences, Vienna, Austria) according to the protocol provided by the manufacturer. Equality of loaded proteins was confirmed by Ponceau S membrane staining (Sigma, St. Louis, Mo., USA) and by detection of anti-tubulin-α or anti-mcm-7 antibodies. The experiments were repeated three times. The protein expressions in treated cells were compared to untreated controls.
Western blot analysis was used to detect changes in apoptosis related protein expression in breast and prostate cancer cell lines. […] This decreased expression of Bid can indicate a cleavage of the protein after treatment by BRs. In DU-145 cell line, expression of pro-apoptotic proteins Bax and Bid was unchanged. […] On the other hand, caspase cleavage was not found in DU-145 cells. Poly-(ADP-ribose) polymerase (PARP) positive expression in controls of prostate cancer cell lines was observed but brassinosteroids had no effect on its expression nor on its degradation within the period 6/12/24 h (FIG. 6B).
A general note: A western blot detects proteins with antibodies after separation by electrophoresis.

Structures are written as SMILES.

Usually IC50 stands for the concentration that inhibits the measured activity by half. Take `CC[C@@H](C(C)C)[C@@H](O)[C@H](O)[C@@H](C)[C@H]1CC[C@H]2[C@@H]3CC(=O)[C@H]4C[C@H](O)[C@H](O)C[C@]4(C)[C@H]3CC[C@]12C` [Brassinosteroid 9, 28-Homocastasterone]: in data set [1], the IC50 was determined as 40 ± 1.5 µM. In the data set with MCF-7 cells, the “MDM-2 expression (Western blot)” value was “decreased expression of MDM-2 regulator of p53 degradation after all time points”; the “expression of apoptosis related proteins (Bcl-2 family, caspase-3 activation) (Western blot)” value is “no significant changes in expression of Bcl-2 family protein nor caspase-3 activation”; the “p21Waf1/Cip1 expression (Western blot)” value is “increase in p21^Waf1/Cip1 and p27^Kip1 expression after 6 h”; the “p27Kip1 expression (Western blot)” value is “increase in p21^Waf1/Cip1 and p27^Kip1 expression after 6 h”. Besides, in the data set on MCF-7 cells, the “p53 expression (Western blot)” value is reported as “after 6 h exposition to brassinosteroids 9 or 6 a slight increase”; the “retinoblastoma protein (Rb) expression, phosphorylated and dephosphorylated forms (Western blot)” value is on record as “decreased”.
As to `CC(C)[C@@H](C)[C@@H](O)[C@H](O)[C@@H](C)[C@H]1CC[C@H]2[C@@H]3COC(=O)[C@H]4C[C@H](O)[C@H](O)C[C@]4(C)[C@H]3CC[C@]12C` [Brassinosteroid 6, 24-Epibrassinolide], the IC50 in data set [1] came out at 60 ± 1.8 µM. Also, in the data set with MCF-7 cells (6/12/24 h vs untreated control), the “cyclin D1 expression (Western blot)” value is “decreased expression of cyclin D1”. Besides, in the data set on MCF-7 cells, the “MDM-2 expression (Western blot)” value was “decreased expression of MDM-2 regulator of p53 degradation after all time points”; the “expression of apoptosis related proteins (Bcl-2 family, caspase-3 activation) (Western blot)” value is on record as “no significant changes in expression of Bcl-2 family protein nor caspase-3 activation”; the “p21Waf1/Cip1 expression (Western blot)” value is reported as “unchanged”; the “p27Kip1 expression (Western blot)” value was “decrease after 6 and 12 h”. Moreover, in the data set with MCF-7 cells, the “p53 expression (Western blot)” value is “after 6 h exposition to brassinosteroids 9 or 6 a slight increase”; the “retinoblastoma protein (Rb) expression, phosphorylated and dephosphorylated forms (Western blot)” value is “decreased”.

Source of the values: patent US20100204460A1, “NATURAL BRASSINOSTEROIDS FOR USE FOR TREATING HYPERPROLIFERATION, TREATING PROLIFERATIVE DISEASES AND REDUCING ADVERSE EFFECTS OF STEROID DYSFUNCTION IN MAMMALS, PHARMACEUTICAL COMPOSITION AND ITS USE” (priority 2007, published 2010).
